Results on three compounds are retold here after publication PMC9872677, “Boronic Acid Transition State Inhibitors as Potent Inactivators of KPC and CTX-M β-Lactamases: Biochemical and Structural Analyses” (Antimicrobial Agents and Chemotherapy, 2023).

The target in data set [1] is T1, KPC-2 β-lactamase (Klebsiella pneumoniae, UniProt Q9F663).
T1 construct: made in house; host or cells: E. coli BL21 Star
Set-up: method as in PMID 26729496. The following applies: off rate, published previously; cited from earlier work.

The subject of data set [2] is pan-drug-resistant KPC-producing K. pneumoniae clinical isolate. Also on record: method as in our unpublished data. Conditions: paired with cefepime; separate paper and previous results, ref our unpublished data; cited from earlier work.
In data set [3] the target is T1, KPC-2 β-lactamase. Also on record: method as in PMID 26729496. The following applies: published previously; cited from earlier work.
The nature of data set [4]: Solubility as DMSO stock solution. The following applies: organic solvent or mixture. Type of data set: physicochemical.
In data set [5] the test system is Escherichia coli DH10B carrying blaSHV, blaKPC-2, and blaKPC-3 variants. Set-up: method as in PMID 26729496. The following applies: previous studies; cited from earlier work.
Data set [6] has as its target T2, CTX-M-96 β-lactamase (Escherichia coli, UniProt Q9EXV5, N92S). The experiment in a line: Off rate (koff) after preincubation with saturating BATSI. Type of data set: biochemical.
Data set [7] concerns the target T2, CTX-M-96 β-lactamase. In words: IC50 after 5-min preincubation, nitrocefin reporter substrate. Type of data set: biochemical. Conditions: 100 μM nitrocefin. The procedure:
(§1) Using nitrocefin as an indicator substrate and 5 min incubation before steady-state velocities were determined, 50% inhibitory concentrations (IC50s) in the nanomolar range for KPC-2 and CTX-M-96 β-lactamases were measured, and both inhibitors bound CTX-M-96 with greater affinity than KPC-2 (Table 1). The IC50 was approximatively 40-fold lower for CTX-M-96 than KPC-2 for both inhibitors. The IC50 of S02030 is 2 nM against CTX-M-96 and 80 nM against KPC-2 ([12]). […] The on rates (k2/K) for S02030 and MB_076 versus CTX-M-96 were 24,000 M^−1 s^−1 and 3,900 M^−1 s^−1, respectively, and those for KPC-2 were 12,000 M^−1 s^−1 and 1,200 M^−1 s^−1 respectively (Table 1). […] The k2/K values for both BATSIs against CTX-M-96 were lower than those of avibactam ([16]). […] Kinetic plots for CTX-M-96–S02030, CTX-M-96–MB_076, and KPC-2–MB_076 are shown in Fig. S1 in the supplemental material.
(§2) The inhibition by BATSIs is assumed to follow a reversible mechanism according to the following scheme: (1) E + I ↔ E:I ↔ E-I^*↔ E-I^** where E represents the enzyme, I the BATSI, E:I the Michaelis complex, E-I* the enzyme-inhibitor complex as the acylation transition state analog, and E-I** the deacylation transition state intermediate, according to previous models ([15]). The half-maximal inhibitory concentration (IC50) was measured after a 5-min preincubation of the enzyme and each BATSI at increasing concentrations, with 100 μM nitrocefin as the reporter substrate, as previously described ([12], [13]).

For data set [8], the target named is T2, CTX-M-96 β-lactamase. The experiment in a line: On rate (k2/K) from progress curves with nitrocefin. Type of data set: biochemical. The procedure:
(§3) To determine the on rate (k2/K), progress curves were obtained by incubating KPC-2 or CTX-M-96 with increasing concentrations of BATSIs and 100 μM nitrocefin as the reporter substrate. Progress curves were fitted to equation 2 to obtain kobs values, by nonlinear least-squares fitting of the data, and k2/K was determined from equation 3. (2) A = vf * t + (v0 − vf) × (1 − e^−kobst)/kobserved + A0 (3) kobserved = k−2 + (k2/K) × ([I]/(1 + ([S]/Km nitrocefin))) In equation 2, A is absorbance at 482 nm, vf is final velocity, t is time, v0 is initial velocity, and A0 is initial absorbance at 482 nm. In equation 3, [I] is the concentration of BATSI and [S] is the concentration of nitrocefin. The data were plotted as kobs versus [BATSI], and the k2/K value was obtained by correcting the value for the slope of the line for the concentration and affinity of nitrocefin (Equation 4). (4) k2/Kcorrected = k2/Kobserved × (([S]/Km nitrocefin) + 1)

Data set [9] addresses T1, KPC-2 β-lactamase. Described as above. Type of data set: biochemical. As to the method: as §3
Data set [10] concerns the target T1, KPC-2 β-lactamase. In words: Off rate (koff) after preincubation with saturating BATSI. Type of data set: biochemical. As to the method: The koff value was determined by mixing KPC-2 or CTX-M-96 with 100 μM nitrocefin after preincubating 5 min with a saturating amount of each BATSI, and progress curves were fitted to a single exponential decay equation as previously described ([12][–][14]).

Data set [11] concerns the target T1, KPC-2 β-lactamase. The experiment in a line: IC50 after 5-min preincubation, nitrocefin reporter substrate. It is filed as biochemical. Conditions: 100 μM nitrocefin. As to the method: as §1, §2
For data set [12], the target named is CTX-M-96. Set-up: method as in PMID 26228623. The following applies: previously reported; cited from earlier work.

Each structure is given as a SMILES string. Values after ≈ are worked out from the molar mass of the structure shown. Where two headings read alike, the source gives them in different places.

For orientation: IC50 means the concentration that gives 50% inhibition. A word on the solubility: it is how much of the substance goes into solution per volume. A word on the kinact/KI: it is the maximal inactivation rate divided by the concentration that gives half of it.

Regarding `O=C(Cc1cccs1)N[C@@H](Cn1cc(C(=O)O)nn1)B(O)O` [S02030], the Koff entry is listed as “(0.46 ± 0.02) × 10^−3 s^−1” in [1] and “(0.75 ± 0.03) × 10^−3 s^−1” in data set [6]. Further, the “restoration of cefepime activity” value in [2] is on record as “restore cefepime activity”. Besides, the IC50 was 80 ± 2 nM in [3] and 2 ± 0.2 nM in data set [7]. Besides, the solubility in data set [4] was 250 mM (≈ 81 mg/mL). Also, the “restoration of susceptibility combined with cefepime” value in data set [5] is listed as “restored susceptibility”. Moreover, in [8], the k2/K is 24,000 M^−1 s^−1. Besides, the “k2/K fold higher compared to MB_076” value in data set [9] stood at 10 fold.
As for `Nc1nnc(SCC(=O)N[C@@H](Cn2cc(C(=O)O)nn2)B(O)O)s1` [MB_076], the figures for the Koff in data set [10] and in [6] were 0.001 s⁻¹ and “(0.62 ± 0.05) × 10^−3 s^−1”, respectively. For the same compound, the “restoration of cefepime activity” value in data set [2] is recorded as “restore cefepime activity”. Besides, in data set [4], the solubility is 1000 mM (≈ 373 mg/mL). Moreover, the IC50 worked out at 4 ± 0.5 nM in [7] and 135 ± 20 nM in [11]. Also, the values for the k2/K in [8] and in [9] (on rate) were 3,900 M^−1 s^−1 and 1,200 M^−1 s^−1, respectively. Moreover, the kinact/KI in [9] (on rate) came to 1200 M⁻¹ s⁻¹.
As for `O=C(O)[C@H]1/C(=C/CO)O[C@@H]2CC(=O)N21` [clavulanic acid], the “inactivation efficiency value (kinact/KI)” value in [12] is recorded as 45,000 M^−1 s^−1.
